# Assay results taken from PubChem BioAssay (NCI).
#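 All cell lines were grown in 96-well plates and treated with compound for 48 hours. Abbreviation: GI50, concentration required for 50% inhibition of growth. TGI: total growth inhibition.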
# Legend:
# Experiment in all cases: NCI anticancer screen, dose series, 48 h
# TK-10 renal = system: TK-10 renal
# NCI-H522 lung = system: NCI-H522 lung
# SF-295 CNS = system: SF-295 CNS
# UO-31 renal = system: UO-31 renal
# RPMI-8226 leukemia = system: RPMI-8226 leukemia
# HT29 colon = system: HT29 colon
# NCI-H23 lung = system: NCI-H23 lung
# OVCAR-8 ovarian = system: OVCAR-8 ovarian
# IGROV1 ovarian = system: IGROV1 ovarian
# SNB-75 CNS = system: SNB-75 CNS
# UACC-257 melanoma = system: UACC-257 melanoma
# HOP-92 NSCLC = system: HOP-92 NSCLC
# NCI-H226 lung = system: NCI-H226 lung
# SK-MEL-5 melanoma = system: SK-MEL-5 melanoma
# ACHN renal = system: ACHN renal
# KM12 colon = system: KM12 colon
# EKVX NSCLC = system: EKVX NSCLC
# SK-OV-3 ovarian = system: SK-OV-3 ovarian
# UACC-62 melanoma = system: UACC-62 melanoma
# SF-539 CNS = system: SF-539 CNS
# MOLT-4 leukemia = system: MOLT-4 leukemia
# MDA-MB-435 = system: MDA-MB-435
# U251 CNS = system: U251 CNS
# OVCAR-4 ovarian = system: OVCAR-4 ovarian
# OVCAR-5 ovarian = system: OVCAR-5 ovarian
# M14 melanoma = system: M14 melanoma
# MALME-3M melanoma = system: MALME-3M melanoma
# SR leukemia = system: SR leukemia
# A549 NSCLC = system: A549 NSCLC
# MCF7 breast = system: MCF7 breast
# NCI-H460 lung = system: NCI-H460 lung
# SW-620 colon = system: SW-620 colon
# HOP-62 NSCLC = system: HOP-62 NSCLC
# K-562 leukemia = system: K-562 leukemia
# HCT-116 colon = system: HCT-116 colon
# SK-MEL-28 melanoma = system: SK-MEL-28 melanoma
# SF-268 CNS = system: SF-268 CNS
# SN12C renal = system: SN12C renal
# DU-145 prostate = system: DU-145 prostate
# HCC-2998 colon = system: HCC-2998 colon
# HL-60(TB) leukemia = system: HL-60(TB) leukemia
# HCT-15 colon = system: HCT-15 colon
# MDA-MB-231 breast = system: MDA-MB-231 breast
# SK-MEL-2 melanoma = system: SK-MEL-2 melanoma
# PC-3 prostate = system: PC-3 prostate
# COLO 205 colon = system: COLO 205 colon
# CAKI-1 renal = system: CAKI-1 renal
# A498 renal = system: A498 renal
# LOX IMVI melanoma = system: LOX IMVI melanoma
# CCRF-CEM leukemia = system: CCRF-CEM leukemia
# BT-549 breast = system: BT-549 breast
# NCI/ADR-RES ovarian = system: NCI/ADR-RES ovarian
# HS 578T breast = system: HS 578T breast
# OVCAR-3 ovarian = system: OVCAR-3 ovarian
# RXF 393 renal = system: RXF 393 renal
smiles,measurement,setting,value
Cc1cc(F)ccc1S(=O)(=O)Nc1cc(-c2c(O)ccc3ccccc23)c(O)c2ccccc12,GI50,TK-10 renal,5.87 µM
same,TGI,TK-10 renal,17.6 µM
same,GI50,NCI-H522 lung,1770 nM
same,TGI,NCI-H522 lung,4.77 µM
same,GI50,SF-295 CNS,3.02 µM
same,TGI,SF-295 CNS,10.3 µM
same,GI50,UO-31 renal,2380 nM
same,TGI,UO-31 renal,13.3 µM
same,GI50,RPMI-8226 leukemia,2890 nM
same,TGI,RPMI-8226 leukemia,24 µM
same,GI50,HT29 colon,4.09 µM
same,TGI,HT29 colon,21.1 µM
same,GI50,NCI-H23 lung,2770 nM
same,TGI,NCI-H23 lung,13.3 µM
same,GI50,OVCAR-8 ovarian,3.65 µM
same,TGI,OVCAR-8 ovarian,> 100 µM
same,GI50,IGROV1 ovarian,2890 nM
same,TGI,IGROV1 ovarian,8.68 µM
same,GI50,SNB-75 CNS,2320 nM
same,TGI,SNB-75 CNS,11.7 µM
same,GI50,UACC-257 melanoma,2600 nM
same,TGI,UACC-257 melanoma,9.33 µM
same,GI50,HOP-92 NSCLC,292 nM
same,TGI,HOP-92 NSCLC,2820 nM
same,GI50,NCI-H226 lung,2850 nM
same,TGI,NCI-H226 lung,14.5 µM
same,GI50,SK-MEL-5 melanoma,1770 nM
same,TGI,SK-MEL-5 melanoma,3.52 µM
same,GI50,ACHN renal,2440 nM
same,TGI,ACHN renal,8.03 µM
same,GI50,KM12 colon,1930 nM
same,TGI,KM12 colon,4.02 µM
same,GI50,EKVX NSCLC,1930 nM
same,TGI,EKVX NSCLC,7.45 µM
same,GI50,SK-OV-3 ovarian,2370 nM
same,TGI,SK-OV-3 ovarian,11.6 µM
same,GI50,UACC-62 melanoma,1850 nM
same,TGI,UACC-62 melanoma,4.54 µM
same,GI50,SF-539 CNS,1830 nM
same,TGI,SF-539 CNS,3.59 µM
same,GI50,MOLT-4 leukemia,3.33 µM
same,TGI,MOLT-4 leukemia,14 µM
same,GI50,MDA-MB-435,3.18 µM
same,TGI,MDA-MB-435,10.9 µM
same,GI50,U251 CNS,3.67 µM
same,TGI,U251 CNS,15.5 µM
same,GI50,OVCAR-4 ovarian,2210 nM
same,TGI,OVCAR-4 ovarian,6.66 µM
same,GI50,OVCAR-5 ovarian,4.55 µM
same,TGI,OVCAR-5 ovarian,17.4 µM
same,GI50,M14 melanoma,2060 nM
same,TGI,M14 melanoma,5.4 µM
same,GI50,MALME-3M melanoma,3.27 µM
same,TGI,MALME-3M melanoma,12.1 µM
same,GI50,SR leukemia,3.21 µM
same,TGI,SR leukemia,19.3 µM
same,GI50,A549 NSCLC,3.76 µM
same,TGI,A549 NSCLC,15.5 µM
same,GI50,MCF7 breast,2420 nM
same,TGI,MCF7 breast,25.6 µM
same,GI50,NCI-H460 lung,2920 nM
same,TGI,NCI-H460 lung,11.4 µM
same,GI50,SW-620 colon,2480 nM
same,TGI,SW-620 colon,11.8 µM
same,GI50,HOP-62 NSCLC,3.27 µM
same,TGI,HOP-62 NSCLC,18.7 µM
same,GI50,K-562 leukemia,3.56 µM
same,TGI,K-562 leukemia,13 µM
same,GI50,HCT-116 colon,2700 nM
same,TGI,HCT-116 colon,11.3 µM
same,GI50,SK-MEL-28 melanoma,3.12 µM
same,TGI,SK-MEL-28 melanoma,9.74 µM
same,GI50,SF-268 CNS,3.4 µM
same,TGI,SF-268 CNS,14.3 µM
same,GI50,SN12C renal,2800 nM
same,TGI,SN12C renal,15.5 µM
same,GI50,DU-145 prostate,4.09 µM
same,TGI,DU-145 prostate,14.4 µM
same,GI50,HCC-2998 colon,2170 nM
same,TGI,HCC-2998 colon,4.38 µM
same,GI50,HL-60(TB) leukemia,2600 nM
same,TGI,HL-60(TB) leukemia,6.19 µM
same,GI50,HCT-15 colon,2680 nM
same,TGI,HCT-15 colon,11.4 µM
same,GI50,MDA-MB-231 breast,2640 nM
same,TGI,MDA-MB-231 breast,13.8 µM
same,GI50,SK-MEL-2 melanoma,2000 nM
same,TGI,SK-MEL-2 melanoma,5.73 µM
same,GI50,PC-3 prostate,1370 nM
same,TGI,PC-3 prostate,5.12 µM
same,GI50,COLO 205 colon,2080 nM
same,TGI,COLO 205 colon,4.94 µM
same,GI50,CAKI-1 renal,2500 nM
same,TGI,CAKI-1 renal,10.9 µM
same,GI50,A498 renal,3000 nM
same,TGI,A498 renal,9.75 µM
same,GI50,LOX IMVI melanoma,2910 nM
same,TGI,LOX IMVI melanoma,10.8 µM
same,GI50,CCRF-CEM leukemia,3.26 µM
same,TGI,CCRF-CEM leukemia,16.6 µM
same,GI50,BT-549 breast,3.04 µM
same,TGI,BT-549 breast,10.8 µM
same,GI50,NCI/ADR-RES ovarian,3.05 µM
same,TGI,NCI/ADR-RES ovarian,13.6 µM
same,GI50,HS 578T breast,2600 nM
same,TGI,HS 578T breast,10.2 µM
same,GI50,OVCAR-3 ovarian,2670 nM
same,TGI,OVCAR-3 ovarian,10.3 µM
same,GI50,RXF 393 renal,2530 nM
same,TGI,RXF 393 renal,9.11 µM
